Results on 2 compounds are retold here after patent US20260219274A1, “POLYOL SWEETNERS AND CARDIOVASCULAR AND THROMBOTIC EVENT RISK” (THE CLEVELAND CLINIC FOUNDATION, priority 2023, published 2026).

The structures appear in SMILES notation.

Series [1] can be described thus: Erythritol intervention study (COSETTE): postprandial plasma erythritol levels. The class given is in vivo, human. Particulars: for hours after ingestion of 30 g. How it is done: In a fourth study, the first phase of the Erythritol Intervention Study (COSETTE, clinicaltrials.gov number: NCT04731363), prospectively recruited healthy volunteers ingested a standard-size artificially sweetened beverage (300 mL) containing 30 g of erythritol with instructions to consume the drink within 2 minutes, and blood samples were collected at scheduled post-prandial time points for crythritol measurement. For each participant in the erythritol intervention study (n=8), baseline blood samples were first obtained after overnight (≥8 hours) fasting. […] Therefore, participants were given 30 g erythritol dissolved in 300 mL water. Serial venous blood sampling was performed up to 7d after baseline. […]
Stable-isotope-dilution LC/MS/MS was used for quantification of erythritol, threitol, and 1,5-AHG in human and mouse plasma. […] Limit of detection (LOD) and limit of quantification (LOQ) were as follow: threitol:0.048 and 0.160 μM; erythritol: 0.026 and 0.089 μM; 1,5-AHG: […]; respectively. Three quality control samples were run with each batch of samples and inter-batch variations expressed as coefficient of variation (CV) were less than 7% for all analytes monitored. Data were collected and analyzed by LabSolution 5.91 software (Shimadzu).

A further series is described as follows: clinical. Particulars: human, in vivo. How it is done: This single center trial was approved by the Cleveland Clinic Institutional Review Board (clinicaltrials.gov identifier NCT04731363). Following subject consent (nonsmokers without CVD, hypertension, or diabetes), blood was drawn after overnight fast and 30 min following consumption of water containing 30 g of […] glucose (n=10, 30.1±11 years of age, 40% male), or erythritol (n=10, 30.5±8 years of age, 50% male), a quantity commonly found in erythritol-sweetened foods and the daily intake of some subjects based on 2013-2014 National Health and Nutrition Examination Survey (NHANES) data and FDA filings.(4,5).
Following erythritol consumption, postprandial circulating erythritol levels (assessed using stable-isotope-dilution liquid-chromatography tandem mass spectrometry (LC/MS/MS)3) were >1000-fold increased compared to baseline levels (median[inter quartile range], 6480[5930-7300]μM versus 3.75[3.35-3.87]μM, P<0.0001). In contrast, circulating erythritol levels remained similar before versus after glucose consumption (3.0[2.6-4.0]μM versus 2.9[2.7-3.8]μM, P=0.87; glucose levels before versus after 86.5(81.8-93.0) versus 127.0(122.3-132.3), P=0.002). […] In contrast, glucose consumption had no effect on platelet aggregation.

The next series relates to dogs. Particulars: dog, in vivo; cited from earlier work.

`OC[C@@H](O)[C@@H](O)CO` [erythritol]: the “elevation of plasma erythritol over baseline” value in series [1] is 1000 fold. In the series “clinical” (both sexes), the concentration at 30 min was determined as 6480 µM. Also, in the series “clinical” (both), the “baseline circulating erythritol levels, median[inter quartile range]” value was 3.75[3.35-3.87] μM and the circulating erythritol levels was 3.0[2.6-4.0] μM. For the same compound, in the series “clinical” (both, 30 min), the circulating erythritol levels was 2.9[2.7-3.8] μM and the “increase of postprandial circulating erythritol vs baseline” value is > 1000 fold.

Regarding `OC[C@@H](O)[C@H](O)[C@@H](O)CO` [xylitol], the toxicity to dogs result in the series on dogs was “highly toxic”.
